The values that follow come from patent publication US12558320B2, “Method of preparing a solid dosage form and a lubricant” (Evonik Operations GmbH, priority 2019, dated 2026).

The series is described as follows: Quantification of stearic acid and palmitic acid in water after homogenization, centrifugation and filtration. In kind it is physicochemical. The protocol: For the quantification of stearic acid and palmitic acid in water from magnesium stearate alone 1 mg magnesium stearate was added in water under high shear homogenization and mixed for 15 min under continuous homogenization. After homogenization, the prepared dispersion was centrifuged to remove bigger particle size. The supernatant solution was then filtered through 0.2-micron nylon syringe filter and the filtrate was analyzed for content of stearic acid and palmitic acid. […] After homogenization, the prepared dispersion was centrifuged to remove bigger particle size. The supernatant solution was then filtered through 0.45 μm (B1) or 0.2 μm (B2) nylon syringe filter and the filtrate were analyzed for content of stearic acid and palmitic acid.

Regarding Magnesium stearate, where the note is “powder, unfiltered”, the Palmitic acid stood at 49.35 % w/w and the Stearic acid stood at 50.64 % w/w. Further, where the note is “water, 0.2 μm filtered”, the Palmitic acid was 2.91 % w/w, the Stearic acid stood at 0.00 % w/w and the “Total fatty acid in media” value is on record as 2.91%.
